Assay [1] relates to HCT116 cells. Put plainly: Cell Proliferation/Viability Assay (Cell Titer-Blue, 72 h). Format: cell-based. The conditions noted are these: Homo sapiens, HCT-116, 3-day (72-hour) incubation. On the procedure: The cytotoxic or cytostatic activity of formula I exemplary compounds was measured by: establishing a proliferating mammalian tumor cell line in a cell culture medium, adding a formula I compound, culturing the cells for a period from about 6 h to about 5 d; and measuring cell viability (Example 78). Cell-based in vitro assays were used to measure viability, i.e. proliferation (IC50), cytotoxicity (EC50).
Viable cells after a 3-day (72-hour) incubation with ERK compounds were quantified using the Cell Titer-Blue Cell Viability Assay from Promega.
Materials and Methods: HCT116 cells were plated in 96 well micro-plates at a density of 1,000 cells/well. The cells were allowed to attach to micro-plate overnight at 37° C./5% CO2. After overnight attachment, diluted compounds were then added to the cells at a final concentration of 0.5% DMSO. After 3 days (72 hours) at 37° C./5% CO2, the number of viable cells was determined using the Cell Titer-Blue Cell Viability Assay from Promega. Briefly, Cell Titer-Blue reagent were added to the cells and incubated for 1 hour. Fluorescense (560 nmexcitation/590 nmemission) was then read using a fluorescence micro-plate reader. Background from high concentration ERK-inhibited wells was subtracted. Representative date is in TABLE III (infra).

Assay [2] has as its target human ERK-2 (Mitogen Activated Kinase 1) (Homo sapiens (Human), UniProt P28482). Briefly: ERK-2 Enzymatic Assay. In kind it is biochemical. The conditions noted are these: 5 nM ERK-2, 25 μM ATP, Omnia peptide S/T17; read-out: ERK Inhibition IC50. An outline of the steps: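 Recombinant N-terminal 6-His human ERK-2 (aa 8-360, E. coli) with fluorescent Omnia peptide S/T17 substrate, ambient temperature, read kinetically every 50 s for ~30 min (Ex 340/Em 495 nm). Linear rates converted to percent of control; IC50 from four-parameter fit.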

The subject of assay [3] is PMA-stimulated P90RSK(Ser380) phosphorylation in HepG2 cells. Briefly: Cellular P90RSK(Ser380) Phosphorylation Assay. The conditions noted are these: Homo sapiens, 1.5 h compound incubation, PMA stimulation, pP90RSK(Ser380) normalized to GAPDH, read-out: Cell Assay IC50. In kind it is cell-based. The method in brief:
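HepG2 cells were pretreated with compound (0.5% DMSO final) for 1.5 h, then stimulated with PMA 100 ng/mL for 30 min at 37° C. Fixed, permeabilized cells were immunostained for pP90RSK(Ser380) and GAPDH. The two-channel infrared fluorescence was read, and the phospho signal was normalized to GAPDH.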

The source of these data is patent publication US9133187B2, “Serine/threonine kinase inhibitors” (ARRAY BIOPHARMA INC., priority 2011, dated 2015).

human ERK-2 (Mitogen Activated Kinase 1), sequence (P28482 8-360): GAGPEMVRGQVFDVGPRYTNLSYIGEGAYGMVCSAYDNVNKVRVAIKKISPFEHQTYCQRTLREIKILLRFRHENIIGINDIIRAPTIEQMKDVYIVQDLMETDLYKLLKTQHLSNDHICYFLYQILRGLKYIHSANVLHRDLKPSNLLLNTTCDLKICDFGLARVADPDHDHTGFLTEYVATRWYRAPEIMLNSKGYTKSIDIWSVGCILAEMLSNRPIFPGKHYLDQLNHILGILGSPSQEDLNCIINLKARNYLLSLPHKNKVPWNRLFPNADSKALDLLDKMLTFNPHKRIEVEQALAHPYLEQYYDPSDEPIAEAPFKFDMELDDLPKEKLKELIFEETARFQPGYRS

As for `CN1C[C@@H](NC(=O)N2CCc3cnc(NC4CCOCC4)nc3C2)[C@H](c2ccc(Cl)c(F)c2)C1` [Compound I-124, N-((3S,4R)-4-(4-chloro-3-fluorophenyl)-1-methylpyrrolidin-3-yl)-2-(tetrahydro-2H-pyran-4-ylamino)-5,6-dihydropyrido[3,4-d]pyrimidine-7(8H)-carboxamide], the IC50 was determined as 0.0475 µM in assay [1], 0.0023 µM in assay [2] and 0.00595 µM in assay [3].
In the same order, the values of `CC(C)Nc1ncc2c(n1)CN(C(=O)N[C@H](CO)c1ccc(Cl)c(Cl)c1)CC2` [Compound I-16, (S)—N-(1-(3,4-dichlorophenyl)-2-hydroxyethyl)-2-(isopropylamino)-5,6-dihydropyrido[3,4-d]pyrimidine-7(8H)-carboxamide] are 2.1 µM, 0.0011 µM and 0.0524 µM.
The like results for `CC(C)Nc1ncc2c(n1)CN(C(=O)N[C@H](CCC#N)c1ccc(Cl)c(Cl)c1)CC2` [Compound I-104, (R)—N-(3-cyano-1-(3,4-dichlorophenyl)propyl)-2-(isopropylamino)-5,6-dihydropyrido[3,4-d]pyrimidine-7(8H)-carboxamide] were, in that order, 1.6 µM, 0.0022 µM and 0.0586 µM.
Take `C[C@@H](CO)Nc1ncc2c(n1)CN(C(=O)N[C@H](CCO)c1ccc(Cl)c(Cl)c1)CC2` [Compound I-33, N—((R)-1-(3,4-dichlorophenyl)-3-hydroxypropyl)-2-((S)-1-hydroxypropan-2-ylamino)-5,6-dihydropyrido[3,4-d]pyrimidine-7(8H)-carboxamide]: the IC50 in assay [1] amounted to 1.9 µM; in assay [2] it was 0.0011 µM; in assay [3] it was 0.055 µM.
On to `COCC[C@@H](NC(=O)N1CCc2cnc(NC3CCOCC3)nc2C1)c1ccc(Cl)c(Cl)c1` [Compound I-28, (R)—N-(1-(3,4-dichlorophenyl)-3-methoxypropyl)-2-(tetrahydro-2H-pyran-4-ylamino)-5,6-dihydropyrido[3,4-d]pyrimidine-7(8H)-carboxamide], for which the IC50 in assay [1] turned out to be 1.9 µM; in assay [2] it was 0.0016 µM; in assay [3], 0.0328 µM.
As for `O=C(N[C@@H](c1ccc(Cl)c(Cl)c1)c1cnco1)N1CCc2cnc(NC3CCOCC3)nc2C1` [Compound I-1, (S)—N-((3,4-dichlorophenyl)(oxazol-5-yl)methyl)-2-(tetrahydro-2H-pyran-4-ylamino)-5,6-dihydropyrido[3,4-d]pyrimidine-7(8H)-carboxamide], the half-maximal inhibitory concentration (IC50) was found to be 0.301 µM in assay [1], 0.0011 µM in assay [2] and 0.00455 µM in assay [3].
Regarding `CC[C@@H](NC(=O)N1CCc2cnc(NC3CCOCC3)nc2C1)c1ccc(OC(F)F)cc1` [Compound I-27, (R)—N-(1-(4-(difluoromethoxy)phenyl)propyl)-2-(tetrahydro-2H-pyran-4-ylamino)-5,6-dihydropyrido[3,4-d]pyrimidine-7(8H)-carboxamide], the IC50 in assay [1] came to 0.628 µM; in assay [2], 0.0015 µM; in assay [3], 0.0269 µM.
As for `CC(C)Nc1ncc2c(n1)CN(C(=O)N[C@@H]1CN(C)C[C@H]1c1ccc(C(F)(F)F)c(F)c1)CC2` [Compound I-120, N-((3S,4R)-4-(3-fluoro-4-(trifluoromethyl)phenyl)-1-methylpyrrolidin-3-yl)-2-(isopropylamino)-5,6-dihydropyrido[3,4-d]pyrimidine-7(8H)-carboxamide], the concentration for half-maximal inhibition (IC50) in assay [1] amounted to 0.557 µM; in assay [2], 0.0016 µM; in assay [3] it was 0.0378 µM.
In the same order, the values of `CC(C)Nc1ncc2c(n1)CN(C(=O)N[C@@H](c1ccc(C(F)(F)F)c(F)c1)[C@H]1CCCN1)CC2` [Compound I-15, N—((S)-(3-fluoro-4-(trifluoromethyl)phenyl)((R)-pyrrolidin-2-yl)methyl)-2-(isopropylamino)-5,6-dihydropyrido[3,4-d]pyrimidine-7(8H)-carboxamide] are 0.625 µM, 0.0011 µM and 0.0373 µM.
The like results for `C[C@@H](NC(=O)N1CCc2cnc(N[C@H]3CC[C@H](O)C3)nc2C1)c1ccc(C(F)(F)F)c(F)c1` [Compound I-52, N—((R)-1-(3-fluoro-4-(trifluoromethyl)phenyl)ethyl)-2-((1S,3S)-3-hydroxycyclopentylamino)-5,6-dihydropyrido[3,4-d]pyrimidine-7(8H)-carboxamide] were, in that order, 1.4 µM, 0.0027 µM and 0.057 µM.
In the case of `C[C@@H](CO)Nc1cc2c(cn1)CCN(C(=O)N[C@H](C)c1ccc(Cl)c(Cl)c1)C2` [Compound I-149, N—((R)-1-(3,4-dichlorophenyl)ethyl)-7-((S)-1-hydroxypropan-2-ylamino)-3,4-dihydro-2,6-naphthyridine-2(1H)-carboxamide], the figures for the IC50 in assay [1], in assay [2] and in assay [3] were 4.1 µM, 0.003 µM and 0.0757 µM, respectively.
The like results for `O=C(NCc1cc2ccccc2[nH]1)N1CCc2cnc(NC3CCOCC3)nc2C1` [Compound I-114, N-((1H-indol-2-yl)methyl)-2-(tetrahydro-2H-pyran-4-ylamino)-5,6-dihydropyrido[3,4-d]pyrimidine-7(8H)-carboxamide] were, in that order, 1.5 µM, 0.0232 µM and 0.0254 µM.
